The source of these data is ChEMBL document CHEMBL5352443, “S-acylthioalkyl ester (SATE)-based prodrugs of deoxyribose cyclic dinucleotides (dCDNs) as the STING agonist for antitumor immunotherapy” (Eur J Med Chem, 2022).

Active and inactive are the calls of the source. The calls are words filed in the database; no cut-off is given here.

One data set relates to CT26. The data set can be described thus: Antitumor activity against mouse CT26 cells expressing high luciferase implanted in BALB/c mouse assessed as darkening of tumor tissue at 0.5 mg/kg, IT administered intratumorally on day 1,3,5,7 and measured on day 1,9,14,24 by fluorescence imaging analysis. The conditions noted are these: route it(Intratumoral), time 24.0 day. It is filed as functional, organism-based.

Data set [1] is described as follows: Toxicity in BALB/c mouse implanted with mouse CT26 cells expressing high luciferase assessed as mouse survival rate at 0.5 mg/kg, IT administered intratumorally on day 1,3,5,7 and measured at 50 days. It is filed as organism-based. The conditions noted are these: in vivo, route it(Intratumoral), time 50 day.
The target in data set [2] is T1, Stimulator of interferon genes protein (Homo sapiens, UniProt Q86WV6). The data set can be described thus: Agonist activity at STING in human THP-1 reporter cells incubated for 24 hrs by QUANTI-Luc assay. It is filed as cell-based.
The target in data set [3] is T1, Stimulator of interferon genes protein. Kind of data set: Agonist activity at STING in human THP-1 reporter cells incubated for 4 hrs in presence of lipofectamine 2000 by QUANTI-Luc assay. It is filed as cell-based.
Data set [4] has the same target. The data set can be described thus: Agonist activity at STING in PMA-treated human THP-1 reporter cells incubated for 30 mins in presence of digitonin by QUANTI-Luc assay. It is filed as cell-based.
Data set [5] is described as follows: Stability of the compound in 20% fetal bovine serum assessed as drug degradation at 100 uM measured at 72 hrs by HPLC analysis. It is filed as ADME, cell-free, Bos taurus. The note with it: cattle.

T1 sequence (Q86WV6 whole entry): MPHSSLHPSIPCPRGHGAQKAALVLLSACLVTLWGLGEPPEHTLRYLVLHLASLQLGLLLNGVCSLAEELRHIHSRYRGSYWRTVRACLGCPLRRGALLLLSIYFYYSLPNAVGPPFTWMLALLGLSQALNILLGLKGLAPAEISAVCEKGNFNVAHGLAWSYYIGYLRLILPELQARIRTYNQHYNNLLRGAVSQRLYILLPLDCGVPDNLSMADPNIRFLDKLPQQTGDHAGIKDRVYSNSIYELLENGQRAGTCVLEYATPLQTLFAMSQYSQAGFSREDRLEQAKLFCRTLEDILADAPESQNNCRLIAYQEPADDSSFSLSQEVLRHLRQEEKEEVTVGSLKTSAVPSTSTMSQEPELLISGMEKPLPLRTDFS

With `Nc1ncnc2c1ncn2[C@@H]1O[C@@H]2COP(=O)(S)O[C@@H]3[C@H](O)[C@@H](COP(=O)(S)O[C@H]2[C@H]1O)O[C@H]3n1cnc2c(N)ncnc21` (some centres not stated), the outcome in the data set with CT26 was Active. Moreover, the survival at 1200 h in data set [1] was 75%.

For `Nc1ncnc2c1ncn2[C@H]1C[C@@H]2OP(=O)(O)OC[C@H]3O[C@@H](n4cnc5c(N)ncnc54)C[C@@H]3OP(=O)(O)OC[C@H]2O1`, the EC50 in data set [2] came to 41.3 µM; in data set [3] it was 0.673 µM; in data set [4] it was 0.317 µM. The Stability result in data set [5] (serum, 72 h, 100 µM) is on record as “Stable”.

For the compound `Nc1nc2c(ncn2[C@@H]2O[C@@H]3COP(=O)(O)O[C@H]4[C@@H](O)[C@H](n5cnc6c(N)ncnc65)O[C@@H]4COP(=O)(O)O[C@@H]2[C@@H]3O)c(=O)[nH]1`, the metabolised at 72 h, 100 µM in data set [5] (20% fetal bovine serum, read-out: Drug degradation) is 80%.
